Patent publication US20240150277A1, “Covalent PPARG inverse-agonists” (Bayer Aktiengesellschaft, priority 2022, published 2024)

Legend:
PPARG receptors = target: T1, PPARG receptors (Homo sapiens, UniProt P37231); experiment: RT-112-FABP4-NLuc Reporter Gene Assay (inverse agonism); assay type: cell-based; conditions: incubated over night; for IC50: PPARG_RT-112_FABP4_NLuc_inverse agonist IC50 - [mol/l], bladder cancer cell line RT-112/84, NanoLuc in FABP4 3′ UTR, 50 μM to 0.03 nM; for Emax: RT112/84, read-out: PPARG_RT-112_FABP4_NLuc_inverse agonist Efficacy - [%], bladder cancer cell line RT-112/84, NanoLuc in FABP4 3′ UTR
T1 construct: leading to PPARG dependent expression of the NanoLuc@ Luciferase; endogenous in cells
T1 sequence (P37231 1-505): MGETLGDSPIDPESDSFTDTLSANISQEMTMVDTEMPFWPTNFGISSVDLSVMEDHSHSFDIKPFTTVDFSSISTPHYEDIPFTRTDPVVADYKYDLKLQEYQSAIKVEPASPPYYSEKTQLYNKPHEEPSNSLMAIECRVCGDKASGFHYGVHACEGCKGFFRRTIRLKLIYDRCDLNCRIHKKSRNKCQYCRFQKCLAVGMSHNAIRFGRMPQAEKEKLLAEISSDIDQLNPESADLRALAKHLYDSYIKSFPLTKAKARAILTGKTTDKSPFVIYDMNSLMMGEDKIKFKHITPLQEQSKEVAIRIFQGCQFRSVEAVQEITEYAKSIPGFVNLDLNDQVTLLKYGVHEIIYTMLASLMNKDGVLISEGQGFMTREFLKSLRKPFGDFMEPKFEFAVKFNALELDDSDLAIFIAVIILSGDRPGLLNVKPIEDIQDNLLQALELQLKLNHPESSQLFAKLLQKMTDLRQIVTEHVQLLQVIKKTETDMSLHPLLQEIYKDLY
Procedure: Inverse agonists reduce the basal expression of the Luciferase resulting in a decrease of the Luciferase signal after addition of substrate and cell lysis. To exclude toxic effects of the compounds a parallel measurement of cell viability was performed based on the CellTiter Glo Assay (Promega).
On the next day 10 μl of test compounds dissolved in DMEM/F12 2% FBS and 0,01% BSA are placed in the wells of the microtiter plates. Final concentrations ranged from 50 μM to 0.03 nM. […] On the next day the NanoLuc Luciferase activity was measured by addition of 40 μl of NanoLuc substrate and lysis buffer (Promega, Madison, Wisconsin) diluted in 2 mM Ca-tyrode buffer (20 mM HEPES, 130 mM NaCl, 5 mM KCl, 5 mM NaHCO3, 2 mM MgCl2, pH 7,4). The resulting light signal was measured for 60 seconds in a luminometer. Every sample was tested in quadruples and mean values were used to calculate the IC50 values and efficacies of the compounds.

UMUC9 cells = experiment: Proliferation UMUC9 H2B-GFP assay (Incucyte); assay type: cell-based; conditions: 7 days of treatment; for Emax: UM-UC-9, 168 h, % efficacy (span); for IC50: UM-UC-9, relative IC50, Day 1 subtracted, percentage of DMSO control
Procedure: Proliferation UMUC9 H2B-GFP assay
Instrument: Incucyte® (Sartorius).
Description: Incucyte® Proliferation Assay measures cell proliferation based on nuclei count using live-cell time-lapse imaging. […] Measurements were performed on the day of treatment (Day 1 reading) and after 7 days of treatment (Day 8 reading). Green fluorescence in cell nuclei is measured using the instrument (Image Channels: Phase, Green; Acquisition time: 300 ms; Magnification: 4×).
Analysis: Selected metrics for analysis: Phase Object Confluence (Percent), Nuclei Count (1/Well) and Total Nuclei Area (μm^2/Well). Day 1 measurements were subtracted from each Day 8 measurement and expressed as percentage of the vehicle (DMSO) control. Percentage proliferation values were then plotted against compound concentration using GraphPad PRISM software. The Sigmoidal 4PL X is log (concentration) model of […] was used. Relative IC50 values and % efficacy (span) is reported below.

| IC50 (PPARG receptors) [nM] | Emax (PPARG receptors) [%] | SMILES | Emax (UMUC9 cells) [%] | IC50 (UMUC9 cells) [nM] |
| --- | --- | --- | --- | --- |
| 4.2 | 103 | Cc1cc(N2CCCC(O)C2)ccc1NC(=O)c1cc(C(=O)NCc2ccc(F)c(F)c2)c(F)cc1Cl (stereo not shown) [Example 11, 4-chloro-N^1-[(3,4-difluorophenyl)methyl]-6-fluoro-N^3-{4-[3-hydroxypiperidin-1-yl]-2-methylphenyl}benzene-1,3-dicarboxamide] | 104 | 8.23 |
| 0.4 | 77.5 | O=C(NCc1ccc(F)c(F)c1)c1cc(Cl)c(Cl)c(C(=O)Nc2ccc(C(F)(F)F)cn2)c1 [Example 13, 4,5-dichloro-N′-[(3,4-difluorophenyl)methyl]-N^3-[5-(trifluoromethyl)pyridin-2-yl]benzene-1,3-dicarboxamide] | 77 | 4800 |
| 0.42 | 82.5 | O=C(NCc1ccc(F)c(F)c1)c1cc(Cl)c(Cl)c(C(=O)Nc2ccc(C3CC3)cn2)c1 [Example 14, 4,5-dichloro-N^3-(5-cyclopropylpyridin-2-yl)-N^1-[(3,4-difluorophenyl)methyl]benzene-1,3-dicarboxamide] | 85 | 1570 |
| 0.52 | 70.7 | COc1ccccc1CNC(=O)c1cc(Cl)c(Cl)c(C(=O)Nc2ccccc2)c1 [Example 15, 4,5-dichloro-N-[(2-methoxyphenyl)methyl]-N^3-phenylbenzene-_,3-dicarboxamide] | 60.6 | 7.96 |
| 1.3 | 71 | Cc1ccccc1CNC(=O)c1cc(Cl)c(Cl)c(C(=O)Nc2ccccc2)c1 [Example 17, 4,5-dichloro-N^1-[(2-methylphenyl)methyl]-N^3-phenylbenzene-1,3-dicarboxamide] | 28.3 | 1.52 |
| 1.35 | 95 | Cc1cc(N2CCOCC2)cnc1NC(=O)c1cc(C(=O)NCc2ccc(F)c(F)c2)c(F)c(C)c1Cl [Example 18, 4-chloro-N^1-[(3,4-difluorophenyl)methyl]-6-fluoro-5-methyl-N^3-[3-methyl-5-(morpholin-4-yl)pyridin-2-yl]benzene-1,3-dicarboxamide] | 59.5 | 31 |
| 1.22 | 144 | COCCOc1ccc(NC(=O)c2cc(C(=O)NCc3ccc(F)c(F)c3)c(F)c(C)c2Cl)c(C)c1 [Example 19, 4-chloro-N^1-[(3,4-difluorophenyl)methyl]-6-fluoro-N^3-[4-(2-methoxyethoxy)-2-methylphenyl]-5-methylbenzene-1,3-dicarboxamide] | 65.9 | 11.6 |
| 0.455 | 114 | Cc1cccc(-c2nc3cc(NC(=O)c4cc(C(=O)NCc5ccc(F)c(F)c5)c(F)c(C)c4Cl)ccc3o2)c1 [Example 20, 4-chloro-N^1-[(3,4-difluorophenyl)methyl]-6-fluoro-5-methyl-N^3-[2-(3-methylphenyl)-1,3-benzoxazol-5-yl]benzene-1,3-dicarboxamide] | 69.6 | 5.91 |
| 1.48 | 142 | O=C(NCc1ccc(F)cc1)c1cc(C(=O)Nc2ccc(Oc3ccccc3)cn2)c(Cl)cc1F [Example 21, 4-chloro-6-fluoro-N^1-[(4-fluorophenyl)methyl]-N^3-(5-phenoxypyridin-2-yl)benzene-1,3-dicarboxamide] | 56.1 | 10.6 |
| 1.3 | 106 | O=C(NCc1ccc(F)cc1)c1cc(C(=O)Nc2ccc3oc(-c4cccc(Cl)c4)nc3c2)c(Cl)cc1F [Example 22, 4-chloro-N^3-[2-(3-chlorophenyl)-1,3-benzoxazol-5-yl]-6-fluoro-N^1-[(4-fluorophenyl)methyl]benzene-1,3-dicarboxamide] | 86.6 | 21.6 |
